Data published in article PMC7413254 (Nature Communications, 2020).
Like-named read-outs stand apart in the source and are kept apart here.

Columns and labels:
non-expressing oocytes [1] = assay: cells; type: cell-based, Xenopus laevis; conditions: non-expressing oocytes, total [3H]CQ transport, normalised to the oocyte type control
Summary of the method: (§1)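 PfCRT-expressing and control oocytes: ND96 pH 5.5 → 1.5 h at 27.5 °C → ice-cold ND96 wash → 10% SDS lysis → scintillation count.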

PfCRT^3D7 [2] = biological target: T1, PfCRT^3D7 (Plasmodium falciparum, UniProt Q8IBZ9); assay: cell-based; type: cell-based; conditions: PfCRT3D7 oocytes, total [3H]CQ transport, normalised to the oocyte type control
T1 sequence (Q8IBZ9 59-398): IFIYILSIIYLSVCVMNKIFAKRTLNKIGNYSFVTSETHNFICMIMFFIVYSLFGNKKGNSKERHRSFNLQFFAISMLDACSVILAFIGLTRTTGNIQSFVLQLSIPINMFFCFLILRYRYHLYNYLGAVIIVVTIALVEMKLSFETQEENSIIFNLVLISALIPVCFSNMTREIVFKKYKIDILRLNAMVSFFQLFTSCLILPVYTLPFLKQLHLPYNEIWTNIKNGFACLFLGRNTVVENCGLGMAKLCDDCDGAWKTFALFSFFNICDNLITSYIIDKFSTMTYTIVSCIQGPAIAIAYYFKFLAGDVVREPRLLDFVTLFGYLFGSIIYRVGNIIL
Summary of the method: as §1

PfCRT^Dd2 [3] = biological target: T2, PfCRT^Dd2 (Plasmodium falciparum, UniProt Q9N623, A220S/I356T/K76T/M74I/N326S/N75E/Q271E/R371I); assay: cell-based; type: cell-based; conditions: for Uptake of [3H]CQ (% PfCRTDd2 control), trans-stimulation / PfCRT-mediated [3H]CQ transport, trans-stimulation (% PfCRTDd2 control): PfCRTDd2 oocytes; for Uptake of [3H]CQ (% PfCRTDd2 control), trans-stimulation: total [3H]CQ transport, normalised to the oocyte type control; for PfCRT-mediated [3H]CQ transport, trans-stimulation (% PfCRTDd2 control): normalised to oocyte type control; for [3H]CQ transport (% PfCRTDd2 control), trans-stimulation, PfCRTDd2: PfCRT-mediated component (background subtracted), mean ± SEM, SEM
T2 sequence (Q9N623 whole entry A220S/I356T/K76T/M74I/N326S/N75E/Q271E/R371I): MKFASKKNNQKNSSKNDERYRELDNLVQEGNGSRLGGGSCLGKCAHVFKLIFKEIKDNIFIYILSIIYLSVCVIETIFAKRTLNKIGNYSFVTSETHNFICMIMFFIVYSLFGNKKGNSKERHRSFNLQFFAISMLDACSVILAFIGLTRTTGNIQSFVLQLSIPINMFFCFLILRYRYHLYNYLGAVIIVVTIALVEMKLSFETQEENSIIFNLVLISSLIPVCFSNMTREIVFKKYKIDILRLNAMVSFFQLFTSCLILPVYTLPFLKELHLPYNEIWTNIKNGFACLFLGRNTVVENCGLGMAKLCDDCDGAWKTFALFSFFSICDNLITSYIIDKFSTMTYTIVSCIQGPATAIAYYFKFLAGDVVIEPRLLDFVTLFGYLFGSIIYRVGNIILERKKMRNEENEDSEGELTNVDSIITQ
Summary of the method: (§2)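 Transport measured in Xenopus oocytes expressing the transporters, 1.5 h at 27.5 °C in ND96 pH 5.5 unless noted. For trans-stimulation, VF-6 injected in 25 nL ND96 at pH 5.0–7.0 or Na^+-free (choline) buffer; intracellular levels based on ~400 nL oocyte volume. Ten oocytes per treatment, ≥4 experiments.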

PfCRT^3D7 [4] = biological target: T1, PfCRT^3D7; assay: cell-based; type: cell-based; conditions: PfCRT3D7 oocytes; for Uptake of [3H]CQ (% PfCRT3D7 control), trans-stimulation: total [3H]CQ transport, normalised to the oocyte type control; for PfCRT-mediated [3H]CQ transport, trans-stimulation (% PfCRT3D7 control): normalised to oocyte type control
Summary of the method: as §2

PfNT1 = biological target: T3, PfNT1 (Plasmodium falciparum, UniProt Q8IDM6); assay: cell-based; type: cell-based; conditions: PfNT1 oocytes, total [3H]CQ transport, normalised to the oocyte type control
T3 construct: expressed in transfected cells; host or cells: Xenopus laevis oocytes (stage V-VI), cRNA-injected
T3 sequence (Q8IDM6 whole entry): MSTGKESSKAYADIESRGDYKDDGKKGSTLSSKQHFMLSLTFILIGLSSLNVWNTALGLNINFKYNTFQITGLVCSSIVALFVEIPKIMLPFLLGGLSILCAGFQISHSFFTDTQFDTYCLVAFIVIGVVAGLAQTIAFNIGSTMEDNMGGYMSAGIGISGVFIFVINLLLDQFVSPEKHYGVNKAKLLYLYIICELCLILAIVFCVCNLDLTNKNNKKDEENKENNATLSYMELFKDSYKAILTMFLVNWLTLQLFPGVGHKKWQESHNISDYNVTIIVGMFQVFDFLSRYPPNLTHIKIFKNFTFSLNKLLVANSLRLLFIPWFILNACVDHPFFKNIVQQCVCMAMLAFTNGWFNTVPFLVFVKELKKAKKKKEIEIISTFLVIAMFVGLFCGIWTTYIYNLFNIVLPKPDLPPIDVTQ
Summary of the method: as §2

PfCRT^Ecu1110 [5] = biological target: T4, PfCRT^Ecu1110 (Plasmodium falciparum, UniProt Q9N623, A220S/I356L/K76T/N326D); assay: cell-based; type: cell-based; conditions: for Uptake of [3H]CQ (% PfCRTEcu1110 control), trans-stimulation / PfCRT-mediated [3H]CQ transport, trans-stimulation (% PfCRTEcu1110 control): PfCRTEcu1110 oocytes; for Uptake of [3H]CQ (% PfCRTEcu1110 control), trans-stimulation: total [3H]CQ transport, normalised to the oocyte type control; for PfCRT-mediated [3H]CQ transport, trans-stimulation (% PfCRTEcu1110 control): normalised to oocyte type control; for [3H]CQ transport (% PfCRTDd2 control), trans-stimulation, PfCRTEcu1110: PfCRT-mediated component (background subtracted), sheet title says normalised to PfCRTDd2 control, mean ± SEM, SEM
T4 sequence (Q9N623 whole entry A220S/I356L/K76T/N326D): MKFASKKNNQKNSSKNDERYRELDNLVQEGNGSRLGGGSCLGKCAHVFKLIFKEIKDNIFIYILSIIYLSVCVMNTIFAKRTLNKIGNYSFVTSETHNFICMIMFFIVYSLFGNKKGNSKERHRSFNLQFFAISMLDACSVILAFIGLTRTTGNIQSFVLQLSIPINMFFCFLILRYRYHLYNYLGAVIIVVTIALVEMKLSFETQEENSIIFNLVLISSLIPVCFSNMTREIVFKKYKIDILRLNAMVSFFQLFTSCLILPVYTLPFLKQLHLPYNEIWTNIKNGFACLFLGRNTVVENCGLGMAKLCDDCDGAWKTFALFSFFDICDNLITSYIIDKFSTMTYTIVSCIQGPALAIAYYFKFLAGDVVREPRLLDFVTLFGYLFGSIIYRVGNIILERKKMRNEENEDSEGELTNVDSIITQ
Summary of the method: as §2

PfCRT^Dd2 [6] = biological target: T2, PfCRT^Dd2; assay: [3H]CQ uptake into Xenopus oocytes, cis-inhibition by unlabelled solute; type: cell-based; conditions: PfCRTDd2 oocytes, background [3H]CQ accumulation subtracted, normalised to oocyte type control
Summary of the method: as §1

PfCRT^Ecu1110 [7] = biological target: T4, PfCRT^Ecu1110; assay: as above; type: cell-based; conditions: for Uptake of [3H]CQ (% PfCRTEcu1110 control), cis-inhibition / PfCRT-mediated [3H]CQ transport, cis-inhibition (% PfCRTEcu1110 control): PfCRTEcu1110 oocytes; for Uptake of [3H]CQ (% PfCRTEcu1110 control), cis-inhibition: total [3H]CQ transport, normalised to the oocyte type control; for PfCRT-mediated [3H]CQ transport, cis-inhibition (% PfCRTEcu1110 control): background [3H]CQ accumulation subtracted, normalised to oocyte type control; for [3H]CQ transport (% PfCRTEcu1110 control), cis-inhibition, PfCRTEcu1110: PfCRT-mediated component (background subtracted), sheet title says normalised to PfCRTDd2 control, mean ± SEM, SEM
Summary of the method: as §1

non-expressing oocytes [8] = type: cell-based, Xenopus laevis; conditions: non-expressing oocytes, total [3H]CQ transport, normalised to the oocyte type control
Summary of the method: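 Oocytes (ten per treatment, ≥4 independent frogs/days) were preloaded by injecting VF-6 in 25 nL ND96 at pH 5.0, 5.5, 6.0 or 7.0, or Na^+-free choline buffer, then uptake run 1.5 h, 27.5 °C, ND96 pH 5.5 by default. Internal concentrations assumed ~400 nL oocyte volume.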

[9] = [test solute]i = 45 mM (30 mM for some solutes due to solubility)
[10] = [test solute]i = 5 mM (intracellular)
[11] = [test solute]i = 45 mM (intracellular; 30 mM for some solutes due to solubility)
[12] = [test solute]i = 5 mM (injected)

DPVN [DN-4]
Uptake of [3H]CQ (% non-expressing oocyte control), cis-inhibition (non-expressing oocytes [1]; [test solute] = 0.5 mM): 98 ± 4.6 % non-expressing oocyte control | Uptake of [3H]CQ (% non-expressing oocyte control), cis-inhibition (non-expressing oocytes [1]; [test solute] = 1 mM): 99 ± 4.7 % non-expressing oocyte control | Uptake of [3H]CQ (% non-expressing oocyte control), cis-inhibition (non-expressing oocytes [1]; [test solute] = 2 mM): 99 ± 3.7 % non-expressing oocyte control | Uptake of [3H]CQ (% PfCRT3D7 control), cis-inhibition (PfCRT^3D7 [2]; [test solute] = 0.5 mM): 100 ± 2.6 % PfCRT3D7 control | Uptake of [3H]CQ (% PfCRT3D7 control), cis-inhibition (PfCRT^3D7 [2]; [test solute] = 1 mM): 100 ± 3.7 % PfCRT3D7 control | Uptake of [3H]CQ (% PfCRT3D7 control), cis-inhibition (PfCRT^3D7 [2]; [test solute] = 2 mM): 100 ± 4.8 % PfCRT3D7 control | Uptake of [3H]CQ (% PfCRTDd2 control), trans-stimulation (PfCRT^Dd2 [3]; [test solute]i = 5 mM): 103 ± 1.1 % PfCRTDd2 control | Uptake of [3H]CQ (% PfCRTDd2 control), trans-stimulation (PfCRT^Dd2 [3]; [9]): 100 ± 3.8 % PfCRTDd2 control | PfCRT-mediated [3H]CQ transport, trans-stimulation (% PfCRTDd2 control) (PfCRT^Dd2 [3]; [10]): 99 ± 4.1 % PfCRTDd2 control | PfCRT-mediated [3H]CQ transport, trans-stimulation (% PfCRTDd2 control) (PfCRT^Dd2 [3]; [11]): 98 ± 3.9 % PfCRTDd2 control | [3H]CQ transport (% PfCRTDd2 control), trans-stimulation, PfCRTDd2 (PfCRT^Dd2 [3]; [12]): 99 ± 4.1 % PfCRTDd2 control | [3H]CQ transport (% PfCRTDd2 control), trans-stimulation, PfCRTDd2 (PfCRT^Dd2 [3]; [9]): 98 ± 3.9 % PfCRTDd2 control | Uptake of [3H]CQ (% PfCRT3D7 control), trans-stimulation (PfCRT^3D7 [4]; [test solute]i = 5 mM): 121 ± 3.4 % PfCRT3D7 control | Uptake of [3H]CQ (% PfCRT3D7 control), trans-stimulation (PfCRT^3D7 [4]; [9]): 153 ± 5.0 % PfCRT3D7 control | PfCRT-mediated [3H]CQ transport, trans-stimulation (% PfCRT3D7 control) (PfCRT^3D7 [4]; [10]): 116 ± 2.3 % PfCRT3D7 control | PfCRT-mediated [3H]CQ transport, trans-stimulation (% PfCRT3D7 control) (PfCRT^3D7 [4]; [11]): 147 ± 4.2 % PfCRT3D7 control | Uptake of [3H]CQ (% PfNT1 control), trans-stimulation (PfNT1; [test solute]i = 5 mM): 100 ± 3.2 % PfNT1 control | Uptake of [3H]CQ (% PfNT1 control), trans-stimulation (PfNT1; [9]): 99 ± 3.2 % PfNT1 control | Uptake of [3H]CQ (% PfCRTEcu1110 control), trans-stimulation (PfCRT^Ecu1110 [5]; [test solute]i = 5 mM): 105 ± 3.6 % PfCRTEcu1110 control | Uptake of [3H]CQ (% PfCRTEcu1110 control), trans-stimulation (PfCRT^Ecu1110 [5]; [9]): 100 ± 2.2 % PfCRTEcu1110 control | PfCRT-mediated [3H]CQ transport, trans-stimulation (% PfCRTEcu1110 control) (PfCRT^Ecu1110 [5]; [10]): 102 ± 2.3 % PfCRTEcu1110 control | PfCRT-mediated [3H]CQ transport, trans-stimulation (% PfCRTEcu1110 control) (PfCRT^Ecu1110 [5]; [11]): 98 ± 3.2 % PfCRTEcu1110 control | [3H]CQ transport (% PfCRTDd2 control), trans-stimulation, PfCRTEcu1110 (PfCRT^Ecu1110 [5]; [12]): 31 ± 1.4 % PfCRTEcu1110 control | [3H]CQ transport (% PfCRTDd2 control), trans-stimulation, PfCRTEcu1110 (PfCRT^Ecu1110 [5]; [9]): 30 ± 1.4 % PfCRTEcu1110 control | PfCRT-mediated [3H]CQ transport, cis-inhibition (% PfCRTDd2 control) (PfCRT^Dd2 [6]; [test solute] = 0.5 mM): 63 ± 3.1 % PfCRTDd2 control | PfCRT-mediated [3H]CQ transport, cis-inhibition (% PfCRTDd2 control) (PfCRT^Dd2 [6]; [test solute] = 1 mM): 47 ± 3.1 % PfCRTDd2 control | PfCRT-mediated [3H]CQ transport, cis-inhibition (% PfCRTDd2 control) (PfCRT^Dd2 [6]; [test solute] = 2 mM): 42 ± 3.2 % PfCRTDd2 control | Uptake of [3H]CQ (% PfCRTEcu1110 control), cis-inhibition (PfCRT^Ecu1110 [7]; [test solute] = 0.5 mM): 73 ± 4.4 % PfCRTEcu1110 control | Uptake of [3H]CQ (% PfCRTEcu1110 control), cis-inhibition (PfCRT^Ecu1110 [7]; [test solute] = 1 mM): 66 ± 3.8 % PfCRTEcu1110 control | Uptake of [3H]CQ (% PfCRTEcu1110 control), cis-inhibition (PfCRT^Ecu1110 [7]; [test solute] = 2 mM): 52 ± 3.3 % PfCRTEcu1110 control | PfCRT-mediated [3H]CQ transport, cis-inhibition (% PfCRTEcu1110 control) (PfCRT^Ecu1110 [7]; [test solute] = 1 mM): 61 ± 2.9 % PfCRTEcu1110 control | PfCRT-mediated [3H]CQ transport, cis-inhibition (% PfCRTEcu1110 control) (PfCRT^Ecu1110 [7]; [test solute] = 2 mM): 48 ± 2.4 % PfCRTEcu1110 control | [3H]CQ transport (% PfCRTEcu1110 control), cis-inhibition, PfCRTEcu1110 (PfCRT^Ecu1110 [7]; [test solute] = 0.5 mM): 21 ± 0.6 % PfCRTEcu1110 control | [3H]CQ transport (% PfCRTEcu1110 control), cis-inhibition, PfCRTEcu1110 (PfCRT^Ecu1110 [7]; [test solute] = 1 mM): 19 ± 0.4 % PfCRTEcu1110 control | [3H]CQ transport (% PfCRTEcu1110 control), cis-inhibition, PfCRTEcu1110 (PfCRT^Ecu1110 [7]; [test solute] = 2 mM): 15 ± 0.1 % PfCRTEcu1110 control | Uptake of [3H]CQ (% non-expressing oocyte control), trans-stimulation (non-expressing oocytes [8]; [test solute]i = 5 mM): 99 ± 4.8 % non-expressing oocyte control | Uptake of [3H]CQ (% non-expressing oocyte control), trans-stimulation (non-expressing oocytes [8]; [9]): 99 ± 1.0 % non-expressing oocyte control
